Data as given in ChEMBL document CHEMBL1201862, “PubChem BioAssay data set” (2004).
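Following 48 hours of exposure in 96-well plates, responses at five concentrations were used to interpolate endpoints linearly. GI50 is the concentration that inhibits growth by half.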 Calls of active or inactive are those of the source. Cut-off read from the data, not from the text of the source: active = GI50 up to about 1.1 µM and inactive = higher.

Experiments:
Test in all cases: NCI tumour cell line growth inhibition, 48 h
HL-60 = tested on: HL-60
OVCAR-4 = tested on: OVCAR-4
DU-145 = tested on: DU-145
A549 = tested on: A549
OVCAR-5 = tested on: OVCAR-5
T47D = tested on: T47D
786-0 = tested on: 786-0
MOLT-4 = tested on: MOLT-4
SNB-75 = tested on: SNB-75
M14 = tested on: M14
SK-OV-3 = tested on: SK-OV-3
Hs-578T = tested on: Hs-578T
RPMI-8226 = tested on: RPMI-8226
NCI-H23 = tested on: NCI-H23
UO-31 = tested on: UO-31
SF-268 = tested on: SF-268
MDA-MB-435 = tested on: MDA-MB-435
A498 = tested on: A498
SF-295 = tested on: SF-295
SW-620 = tested on: SW-620
NCI-H226 = tested on: NCI-H226
UACC-257 = tested on: UACC-257
OVCAR-8 = tested on: OVCAR-8
HCT-116 = tested on: HCT-116
IGROV-1 = tested on: IGROV-1
BT-549 = tested on: BT-549
HCC 2998 = tested on: HCC 2998
NCI-H460 = tested on: NCI-H460
COLO 205 = tested on: COLO 205
PC-3 = tested on: PC-3
LOX IMVI = tested on: LOX IMVI
MDA-MB-231 = tested on: MDA-MB-231
HCT-15 = tested on: HCT-15
EKVX = tested on: EKVX
CCRF-CEM = tested on: CCRF-CEM
SK-MEL-2 = tested on: SK-MEL-2
TK-10 = tested on: TK-10
SR = tested on: SR
SNB-19 = tested on: SNB-19
HOP-92 = tested on: HOP-92
K562 = tested on: K562
HOP-62 = tested on: HOP-62
OVCAR-3 = tested on: OVCAR-3
SK-MEL-5 = tested on: SK-MEL-5
HT-29 = tested on: HT-29
NCI/ADR-RES = tested on: NCI/ADR-RES
KM12 = tested on: KM12
UACC-62 = tested on: UACC-62
Malme-3M = tested on: Malme-3M
SK-MEL-28 = tested on: SK-MEL-28
CAKI-1 = tested on: CAKI-1
U-251 = tested on: U-251
ACHN = tested on: ACHN
NCI-H522 = tested on: NCI-H522
SF-539 = tested on: SF-539
RXF 393 = tested on: RXF 393
SN12C = tested on: SN12C
MCF7 = tested on: MCF7

What does the source list for O=S(=O)(NC(c1ccccc1)(c1cc2ccccc2[nH]1)c1cc2ccccc2n1S(=O)(=O)c1ccccc1)c1ccccc1 (centres undefined)?
GI50 (HL-60): > 100 µM (inactive); GI50 (OVCAR-4): > 100 µM (inactive); GI50 (DU-145): > 100 µM (inactive); GI50 (A549): 48.3 µM (inactive); GI50 (OVCAR-5): > 100 µM (inactive); GI50 (T47D): > 100 µM (inactive); GI50 (786-0): > 100 µM (inactive); GI50 (MOLT-4): > 100 µM (inactive); GI50 (SNB-75): > 100 µM (inactive); GI50 (M14): 62.2 µM (inactive); GI50 (SK-OV-3): 0.292 µM (active); GI50 (Hs-578T): > 100 µM (inactive); GI50 (RPMI-8226): 52.1 µM (inactive); GI50 (NCI-H23): > 100 µM (inactive); GI50 (UO-31): > 100 µM (inactive); GI50 (SF-268): > 100 µM (inactive); GI50 (MDA-MB-435): > 100 µM (inactive); GI50 (A498): > 100 µM (inactive); GI50 (SF-295): > 100 µM (inactive); GI50 (SW-620): > 100 µM (inactive); GI50 (NCI-H226): > 100 µM (inactive); GI50 (UACC-257): > 100 µM (inactive); GI50 (OVCAR-8): > 100 µM (inactive); GI50 (HCT-116): > 100 µM (inactive); GI50 (IGROV-1): > 100 µM (inactive); GI50 (BT-549): > 100 µM (inactive); GI50 (HCC 2998): > 100 µM (inactive); GI50 (NCI-H460): > 100 µM (inactive); GI50 (COLO 205): > 100 µM (inactive); GI50 (PC-3): > 100 µM (inactive); GI50 (LOX IMVI): > 100 µM (inactive); GI50 (MDA-MB-231): > 100 µM (inactive); GI50 (HCT-15): > 100 µM; GI50 (EKVX): > 100 µM (inactive); GI50 (CCRF-CEM): > 100 µM (inactive); GI50 (SK-MEL-2): 28.9 µM (inactive); GI50 (TK-10): > 100 µM (inactive); GI50 (SR): > 100 µM (inactive); GI50 (SNB-19): > 100 µM (inactive); GI50 (HOP-92): > 100 µM (inactive); GI50 (K562): > 100 µM (inactive); GI50 (HOP-62): > 100 µM (inactive); GI50 (OVCAR-3): 91.8 µM (inactive); GI50 (SK-MEL-5): > 100 µM (inactive); GI50 (HT-29): > 100 µM (inactive); GI50 (NCI/ADR-RES): > 100 µM (inactive); GI50 (KM12): > 100 µM (inactive); GI50 (UACC-62): > 100 µM (inactive); GI50 (Malme-3M): 59.2 µM (inactive); GI50 (SK-MEL-28): > 100 µM (inactive); GI50 (CAKI-1): > 100 µM (inactive); GI50 (U-251): > 100 µM (inactive)

For C(/Cc1ccc2c(c1)OCO2)=N\N=C1NCCN1, which GI50 (HL-60) is on record?
Its GI50 is 89.1 µM (inactive).

And the GI50 (OVCAR-4)?
The GI50 was > 100 µM (inactive).

And the GI50 (DU-145)?
Its GI50 is > 100 µM (inactive).

What about the GI50 (A549) of the same compound?
The GI50 was 73.8 µM (inactive).

And the GI50 (OVCAR-5)?
Its GI50 is 57.3 µM (inactive).

And the GI50 (T47D)?
The GI50 was 90.6 µM (inactive).

And the GI50 (786-0)?
Its GI50 is > 100 µM (inactive).

What about the GI50 (ACHN) of the same compound?
Its GI50 is > 100 µM (inactive).

What about the GI50 (MOLT-4) of the same compound?
The GI50 was 52.6 µM (inactive).

And the GI50 (NCI-H522)?
The GI50 was > 100 µM (inactive).

And the GI50 (SNB-75)?
The GI50 was 33.7 µM (inactive).

What about the GI50 (M14) of the same compound?
Its GI50 is > 100 µM (inactive).

And the GI50 (SK-OV-3)?
The GI50 was 48.6 µM (inactive).

And the GI50 (Hs-578T)?
Its GI50 is > 100 µM (inactive).

What about the GI50 (RPMI-8226) of the same compound?
Its GI50 is 83.2 µM (inactive).

What about the GI50 (NCI-H23) of the same compound?
The GI50 was > 100 µM (inactive).

And the GI50 (UO-31)?
The GI50 was 42.1 µM (inactive).

What about the GI50 (SF-268) of the same compound?
Its GI50 is > 100 µM (inactive).

What about the GI50 (MDA-MB-435) of the same compound?
The GI50 was > 100 µM (inactive).

And the GI50 (A498)?
Its GI50 is 18.8 µM (inactive).

And the GI50 (SF-295)?
The GI50 was 42.4 µM (inactive).

And the GI50 (SW-620)?
The GI50 was > 100 µM (inactive).

What about the GI50 (NCI-H226) of the same compound?
The GI50 was 33.2 µM (inactive).

What about the GI50 (SF-539) of the same compound?
Its GI50 is 79.3 µM (inactive).

And the GI50 (UACC-257)?
The GI50 was > 100 µM (inactive).

What about the GI50 (OVCAR-8) of the same compound?
The GI50 was > 100 µM (inactive).

What about the GI50 (HCT-116) of the same compound?
The GI50 was 58.9 µM (inactive).

What about the GI50 (IGROV-1) of the same compound?
The GI50 was > 100 µM (inactive).

And the GI50 (BT-549)?
Its GI50 is 91.2 µM (inactive).

What about the GI50 (HCC 2998) of the same compound?
Its GI50 is 92.3 µM (inactive).

What about the GI50 (NCI-H460) of the same compound?
Its GI50 is 47.8 µM (inactive).

What about the GI50 (COLO 205) of the same compound?
The GI50 was > 100 µM (inactive).

What about the GI50 (PC-3) of the same compound?
Its GI50 is 71.3 µM (inactive).

What about the GI50 (LOX IMVI) of the same compound?
Its GI50 is 41.2 µM (inactive).

And the GI50 (RXF 393)?
Its GI50 is > 100 µM (inactive).

What about the GI50 (MDA-MB-231) of the same compound?
Its GI50 is > 100 µM (inactive).

And the GI50 (HCT-15)?
The GI50 was > 100 µM.

And the GI50 (EKVX)?
Its GI50 is 61.2 µM (inactive).

And the GI50 (CCRF-CEM)?
Its GI50 is > 100 µM (inactive).

What about the GI50 (SK-MEL-2) of the same compound?
The GI50 was > 100 µM (inactive).

And the GI50 (TK-10)?
The GI50 was 61.7 µM (inactive).

And the GI50 (SR)?
The GI50 was 73.5 µM (inactive).

And the GI50 (SNB-19)?
The GI50 was > 100 µM (inactive).

What about the GI50 (HOP-92) of the same compound?
The GI50 was 34.8 µM (inactive).

And the GI50 (SN12C)?
Its GI50 is 84.7 µM (inactive).

What about the GI50 (MCF7) of the same compound?
Its GI50 is > 100 µM (inactive).

What about the GI50 (K562) of the same compound?
Its GI50 is 43.2 µM (inactive).

And the GI50 (HOP-62)?
Its GI50 is 56.1 µM (inactive).

And the GI50 (OVCAR-3)?
Its GI50 is > 100 µM (inactive).

And the GI50 (SK-MEL-5)?
Its GI50 is 47.3 µM (inactive).

What about the GI50 (HT-29) of the same compound?
The GI50 was 57.9 µM (inactive).

And the GI50 (NCI/ADR-RES)?
The GI50 was > 100 µM (inactive).

And the GI50 (KM12)?
Its GI50 is > 100 µM (inactive).

And the GI50 (UACC-62)?
Its GI50 is > 100 µM (inactive).

And the GI50 (Malme-3M)?
Its GI50 is > 100 µM (inactive).

And the GI50 (SK-MEL-28)?
The GI50 was > 100 µM (inactive).

What about the GI50 (U-251) of the same compound?
The GI50 was > 100 µM (inactive).
